From patent US12479847B2 (DANA-FARBER CANCER INSTITUTE, INC., priority 2019, dated 2025)

Key:
Experiment in all cases: KINOMEscan (ScanMAX) kinase profiling
Format in all cases: binding
panel of 468 kinases [1] = target: T1, panel of 468 kinases (Homo sapiens, UniProt P00519, Y253F); conditions: ABL1(Y253F)-phosphorylated; 1 μM; read-out: % control
T1 construct: purchased KINOMEscan (ScanMAX) service

panel of 468 kinases [2] = target: T2, panel of 468 kinases (Homo sapiens, UniProt P10721, A829P); conditions: KIT(A829P); 1 μM; read-out: % control
T2 construct: purchased KINOMEscan (ScanMAX) service
T2 sequence (P10721 26-976 A829P): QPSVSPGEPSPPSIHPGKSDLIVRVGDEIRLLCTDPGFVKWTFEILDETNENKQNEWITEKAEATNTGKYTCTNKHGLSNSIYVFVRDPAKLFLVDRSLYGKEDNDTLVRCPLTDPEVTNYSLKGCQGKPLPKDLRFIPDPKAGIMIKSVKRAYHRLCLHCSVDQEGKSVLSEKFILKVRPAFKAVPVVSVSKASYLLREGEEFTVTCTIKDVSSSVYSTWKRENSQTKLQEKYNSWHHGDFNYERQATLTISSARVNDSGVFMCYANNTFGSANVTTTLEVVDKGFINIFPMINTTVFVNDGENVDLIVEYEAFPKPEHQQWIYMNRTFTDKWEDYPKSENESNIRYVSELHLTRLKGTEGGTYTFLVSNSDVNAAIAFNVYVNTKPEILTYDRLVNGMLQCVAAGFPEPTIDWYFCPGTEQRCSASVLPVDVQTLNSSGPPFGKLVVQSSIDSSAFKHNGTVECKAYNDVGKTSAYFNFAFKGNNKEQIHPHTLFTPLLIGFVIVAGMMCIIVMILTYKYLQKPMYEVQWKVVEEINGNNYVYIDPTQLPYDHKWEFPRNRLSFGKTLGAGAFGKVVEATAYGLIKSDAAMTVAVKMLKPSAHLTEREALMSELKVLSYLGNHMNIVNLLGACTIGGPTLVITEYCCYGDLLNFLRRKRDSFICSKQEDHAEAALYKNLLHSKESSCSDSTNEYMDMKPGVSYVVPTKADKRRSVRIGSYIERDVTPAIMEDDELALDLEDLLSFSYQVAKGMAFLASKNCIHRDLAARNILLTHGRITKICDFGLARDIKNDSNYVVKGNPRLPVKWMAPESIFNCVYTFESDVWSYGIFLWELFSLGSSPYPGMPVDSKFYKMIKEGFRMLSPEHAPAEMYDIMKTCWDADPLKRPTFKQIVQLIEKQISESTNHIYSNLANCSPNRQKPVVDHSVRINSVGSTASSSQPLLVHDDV

panel of 468 kinases [3] = target: T3, panel of 468 kinases (Homo sapiens, UniProt P15056); conditions: BRAF; 1 μM; read-out: % control
T3 construct: purchased KINOMEscan (ScanMAX) service
T3 sequence (P15056 whole entry): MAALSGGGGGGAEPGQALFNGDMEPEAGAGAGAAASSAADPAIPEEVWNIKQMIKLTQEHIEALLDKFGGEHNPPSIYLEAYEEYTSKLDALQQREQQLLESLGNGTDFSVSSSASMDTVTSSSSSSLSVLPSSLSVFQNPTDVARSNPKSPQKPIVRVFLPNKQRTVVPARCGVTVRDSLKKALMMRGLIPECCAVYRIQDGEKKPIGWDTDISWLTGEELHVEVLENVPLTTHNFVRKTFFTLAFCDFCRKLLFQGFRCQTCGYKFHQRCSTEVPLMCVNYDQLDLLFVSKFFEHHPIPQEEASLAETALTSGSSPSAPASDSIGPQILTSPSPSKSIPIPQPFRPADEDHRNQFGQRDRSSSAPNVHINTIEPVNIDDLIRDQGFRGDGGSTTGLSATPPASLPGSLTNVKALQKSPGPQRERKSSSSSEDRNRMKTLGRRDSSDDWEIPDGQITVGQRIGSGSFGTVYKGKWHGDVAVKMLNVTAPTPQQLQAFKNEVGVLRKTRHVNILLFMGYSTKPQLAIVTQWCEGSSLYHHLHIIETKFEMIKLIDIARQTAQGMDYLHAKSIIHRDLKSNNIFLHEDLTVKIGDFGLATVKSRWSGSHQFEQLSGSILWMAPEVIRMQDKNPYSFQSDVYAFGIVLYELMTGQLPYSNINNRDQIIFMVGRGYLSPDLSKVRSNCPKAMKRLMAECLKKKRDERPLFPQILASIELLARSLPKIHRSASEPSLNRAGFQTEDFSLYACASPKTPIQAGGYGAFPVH

panel of 468 kinases [4] = target: T4, panel of 468 kinases (Homo sapiens, UniProt P42336, E545A); conditions: PIK3CA(E545A); 1 μM; read-out: % control
T4 construct: purchased KINOMEscan (ScanMAX) service
T4 sequence (P42336 whole entry E545A): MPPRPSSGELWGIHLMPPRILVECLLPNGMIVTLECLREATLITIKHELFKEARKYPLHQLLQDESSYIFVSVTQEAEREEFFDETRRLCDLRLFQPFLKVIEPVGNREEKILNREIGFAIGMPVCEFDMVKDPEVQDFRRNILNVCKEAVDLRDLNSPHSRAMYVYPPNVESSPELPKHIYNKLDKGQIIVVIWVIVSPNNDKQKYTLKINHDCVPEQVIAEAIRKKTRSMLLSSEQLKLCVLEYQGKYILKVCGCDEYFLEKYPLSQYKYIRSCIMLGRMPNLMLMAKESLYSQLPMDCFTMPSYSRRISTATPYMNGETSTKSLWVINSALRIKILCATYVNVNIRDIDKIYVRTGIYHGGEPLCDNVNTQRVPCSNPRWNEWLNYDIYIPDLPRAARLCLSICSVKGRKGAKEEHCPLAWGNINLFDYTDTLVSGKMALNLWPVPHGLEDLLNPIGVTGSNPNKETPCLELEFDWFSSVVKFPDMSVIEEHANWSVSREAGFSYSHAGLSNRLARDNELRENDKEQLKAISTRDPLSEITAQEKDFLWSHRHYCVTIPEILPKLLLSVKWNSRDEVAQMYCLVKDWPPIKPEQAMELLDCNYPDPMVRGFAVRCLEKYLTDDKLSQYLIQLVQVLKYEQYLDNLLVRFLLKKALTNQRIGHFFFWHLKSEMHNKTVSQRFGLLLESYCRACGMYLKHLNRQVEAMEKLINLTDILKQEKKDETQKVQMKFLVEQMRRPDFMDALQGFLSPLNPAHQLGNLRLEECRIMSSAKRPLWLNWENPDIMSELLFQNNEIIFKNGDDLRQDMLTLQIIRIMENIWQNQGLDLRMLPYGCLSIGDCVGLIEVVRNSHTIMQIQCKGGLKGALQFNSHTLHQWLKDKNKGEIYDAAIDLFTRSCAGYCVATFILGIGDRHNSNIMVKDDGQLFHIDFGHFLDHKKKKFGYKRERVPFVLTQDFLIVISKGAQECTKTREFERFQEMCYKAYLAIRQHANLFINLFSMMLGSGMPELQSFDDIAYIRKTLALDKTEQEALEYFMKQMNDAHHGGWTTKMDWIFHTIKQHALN

panel of 468 kinases [5] = target: T5, panel of 468 kinases (Homo sapiens, UniProt Q13627); conditions: DYRK1A; 1 μM; read-out: % control
T5 construct: purchased KINOMEscan (ScanMAX) service

panel of 468 kinases [6] = target: T6, panel of 468 kinases (Homo sapiens, UniProt Q16584); conditions: MLK3; 1 μM; read-out: % control
T6 construct: purchased KINOMEscan (ScanMAX) service
T6 sequence (Q16584 whole entry): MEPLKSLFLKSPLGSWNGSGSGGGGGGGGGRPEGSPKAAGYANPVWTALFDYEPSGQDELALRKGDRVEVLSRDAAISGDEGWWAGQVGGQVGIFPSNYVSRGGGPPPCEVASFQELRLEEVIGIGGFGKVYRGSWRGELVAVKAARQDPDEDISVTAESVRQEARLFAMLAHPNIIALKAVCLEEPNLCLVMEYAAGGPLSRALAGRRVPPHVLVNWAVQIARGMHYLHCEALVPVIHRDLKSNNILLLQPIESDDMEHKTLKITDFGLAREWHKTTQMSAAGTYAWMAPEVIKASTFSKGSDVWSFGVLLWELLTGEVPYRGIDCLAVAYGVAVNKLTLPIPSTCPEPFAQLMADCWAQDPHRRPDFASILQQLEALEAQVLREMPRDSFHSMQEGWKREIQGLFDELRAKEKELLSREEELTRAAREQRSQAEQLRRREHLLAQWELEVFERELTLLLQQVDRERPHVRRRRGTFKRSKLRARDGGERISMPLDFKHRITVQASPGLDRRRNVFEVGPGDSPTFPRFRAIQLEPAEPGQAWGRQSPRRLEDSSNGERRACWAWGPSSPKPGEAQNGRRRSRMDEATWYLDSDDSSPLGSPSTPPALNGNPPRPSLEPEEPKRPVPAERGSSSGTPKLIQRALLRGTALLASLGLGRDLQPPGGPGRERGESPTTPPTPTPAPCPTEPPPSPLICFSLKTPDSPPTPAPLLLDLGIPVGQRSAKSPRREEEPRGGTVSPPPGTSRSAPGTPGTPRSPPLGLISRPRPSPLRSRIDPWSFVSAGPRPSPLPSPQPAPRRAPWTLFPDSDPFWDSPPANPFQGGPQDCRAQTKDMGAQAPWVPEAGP

panel of 468 kinases [7] = target: T7, panel of 468 kinases (Homo sapiens, UniProt Q8WXR4); conditions: MYO3B; 1 μM; read-out: % control
T7 construct: purchased KINOMEscan (ScanMAX) service
T7 sequence (Q8WXR4 1-1341): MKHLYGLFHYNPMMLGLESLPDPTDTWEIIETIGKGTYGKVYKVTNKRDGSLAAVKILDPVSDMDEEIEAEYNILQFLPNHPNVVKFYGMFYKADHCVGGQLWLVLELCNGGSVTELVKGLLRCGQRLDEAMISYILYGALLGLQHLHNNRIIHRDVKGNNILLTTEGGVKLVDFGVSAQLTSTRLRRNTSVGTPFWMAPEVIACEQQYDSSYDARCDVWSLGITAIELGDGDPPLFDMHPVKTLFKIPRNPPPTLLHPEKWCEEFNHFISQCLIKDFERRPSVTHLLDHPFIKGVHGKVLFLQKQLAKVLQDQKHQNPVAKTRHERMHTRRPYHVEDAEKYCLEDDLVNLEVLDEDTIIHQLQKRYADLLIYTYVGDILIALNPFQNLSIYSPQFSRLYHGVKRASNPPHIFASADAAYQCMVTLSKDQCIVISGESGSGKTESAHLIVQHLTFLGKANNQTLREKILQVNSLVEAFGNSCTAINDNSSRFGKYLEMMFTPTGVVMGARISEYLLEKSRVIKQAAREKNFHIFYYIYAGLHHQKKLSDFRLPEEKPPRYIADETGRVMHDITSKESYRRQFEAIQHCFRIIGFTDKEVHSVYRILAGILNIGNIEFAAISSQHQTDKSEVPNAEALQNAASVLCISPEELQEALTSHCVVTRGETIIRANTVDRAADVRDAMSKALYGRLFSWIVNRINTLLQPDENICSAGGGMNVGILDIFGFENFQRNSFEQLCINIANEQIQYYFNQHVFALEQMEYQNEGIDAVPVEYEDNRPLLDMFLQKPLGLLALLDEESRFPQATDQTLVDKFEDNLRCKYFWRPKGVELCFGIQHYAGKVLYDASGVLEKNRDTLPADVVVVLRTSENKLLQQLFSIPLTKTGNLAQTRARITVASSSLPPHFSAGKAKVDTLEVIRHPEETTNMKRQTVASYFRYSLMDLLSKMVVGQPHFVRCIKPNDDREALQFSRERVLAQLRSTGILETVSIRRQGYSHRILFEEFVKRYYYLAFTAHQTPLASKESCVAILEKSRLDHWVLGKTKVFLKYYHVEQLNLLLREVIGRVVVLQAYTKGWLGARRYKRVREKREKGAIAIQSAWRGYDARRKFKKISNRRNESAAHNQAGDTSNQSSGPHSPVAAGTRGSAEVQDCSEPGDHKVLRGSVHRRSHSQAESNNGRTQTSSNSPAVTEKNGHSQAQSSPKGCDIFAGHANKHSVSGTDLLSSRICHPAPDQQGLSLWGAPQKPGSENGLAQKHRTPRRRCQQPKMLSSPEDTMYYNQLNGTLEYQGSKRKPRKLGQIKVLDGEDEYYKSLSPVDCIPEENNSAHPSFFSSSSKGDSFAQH

panel of 468 kinases [8] = target: T8, panel of 468 kinases (Homo sapiens, UniProt Q96D53); conditions: ADCK4; 1 μM; read-out: % control
T8 construct: purchased KINOMEscan (ScanMAX) service
T8 sequence (Q96D53 1-544): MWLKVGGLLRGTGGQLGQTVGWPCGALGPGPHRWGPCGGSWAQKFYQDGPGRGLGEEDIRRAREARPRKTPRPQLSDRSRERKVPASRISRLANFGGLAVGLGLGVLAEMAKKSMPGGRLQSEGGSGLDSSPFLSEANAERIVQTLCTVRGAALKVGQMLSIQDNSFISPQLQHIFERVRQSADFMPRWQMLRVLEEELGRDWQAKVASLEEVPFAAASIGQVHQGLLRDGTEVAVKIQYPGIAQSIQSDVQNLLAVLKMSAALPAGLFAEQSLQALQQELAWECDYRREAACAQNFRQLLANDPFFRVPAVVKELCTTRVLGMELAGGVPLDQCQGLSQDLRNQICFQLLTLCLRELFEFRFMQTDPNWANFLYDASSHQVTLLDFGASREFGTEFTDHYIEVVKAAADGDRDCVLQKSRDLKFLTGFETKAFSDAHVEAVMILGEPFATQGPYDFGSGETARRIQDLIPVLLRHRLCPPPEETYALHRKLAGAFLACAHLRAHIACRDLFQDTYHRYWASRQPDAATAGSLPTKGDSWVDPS

Row | Compound | remaining binding at 1 µM (panel of 468 kinases [1]) [%] | remaining binding at 1 µM (panel of 468 kinases [2]) [%] | remaining binding at 1 µM (panel of 468 kinases [3]) [%] | remaining binding at 1 µM (panel of 468 kinases [4]) [%] | remaining binding at 1 µM (panel of 468 kinases [5]) [%] | remaining binding at 1 µM (panel of 468 kinases [6]) [%] | remaining binding at 1 µM (panel of 468 kinases [7]) [%] | remaining binding at 1 µM (panel of 468 kinases [8]) [%]
1 | CNc1nc(Nc2ccc(C(=O)N3CCC(N4CCOCC4)CC3)c3c2OCO3)nc2[nH]cc(Cl)c12 [Compound 75, (7-((5-chloro-4-(methylamino)-7H-pyrrolo[2,3-d]pyrimidin-2-yl)amino)benzo[d][1,3]dioxol-4-yl)(4-morpholinopiperidin-1-yl)methanone] | 53 | 50 | 100 | 100 | 8.9 | 51 | 100 | 100
2 | CNc1nc(Nc2ccc(S(=O)(=O)N3CCC(N4CCOCC4)CC3)cc2OC)nc2[nH]cc(Cl)c12 [Compound 12, 5-chloro-N2-(2-methoxy-4-((4-morpholinopiperidin-1-yl)sulfonyl)phenyl)-N4-methyl-7H-pyrrolo[2,3-d]pyrimidine-2,4-diamine] | 51 | 76 | 93 | 100 | 14 | 93 | 95 | 100
3 | CNc1nc(Nc2ccc(P3(=O)CCN(C4CCOCC4)CC3)cc2OC)nc2[nH]cc(Cl)c12 [Compound 77, 4-(4-((5-chloro-4-(methylamino)-7H-pyrrolo[2,3-d]pyrimidin-2-yl)amino)-3-methoxyphenyl)-1-(tetrahydro-2H-pyran-4-yl)-1,4-azaphosphinane 4-oxide] | 53 | 78 | 97 | 100 | 4.7 | 80 | 100 | 81
